What was measured:
Alternaria brassicae = assay: In vivo test of activity on Alternaria brassicae (crucifer black spot) on radish; settings: preventive spray 24 h before inoculation
Botrytis cinerea = assay: In vivo test of activity on Botrytis cinerea on cucumber; settings: preventive spray 24 h before inoculation
Experimental: In Vivo Test of Activity on Botrytis cinerea on Cucumber
(§1) An aqueous solution of the active material to be tested is prepared at a concentration of 2 g/l by grinding in solution 1 or solution 2:
(§2) • Water • Tween 80 diluted to 10% in water: 5 μl/mg of active material • Clay in a sufficient amount for active material+clay to equal 100 mg; Solution 2
(§3) Concentrated solution containing surfactants and adjuvants conventionally used: 200 μl/mg of active material.
(§4) The aqueous solution is diluted with water so as to obtain the desired concentration.
Cucumbers of the Marketer variety are sown in a 50/50 pozzolan/peat substrate and maintained at 18-22° C. The treatment is carried out by spraying the aqueous suspension. The untreated control plants are sprayed with water.
24 hours after treatment, the plants are inoculated by spraying a solution of Botrytis cinerea spores (150 000 spores/ml) originating from a 15-day culture.
The cucumber plants are then maintained at 11-15° C. in a humid atmosphere. The effectiveness of the products is evaluated relative to the control plants after seven to eight days of incubation.
(§5) The effectiveness of the molecules is estimated, at 500 g/ha, 250 g/ha or 330 ppm, by the percentage of control relative to untreated plants. Under these conditions, good effectiveness is defined as more than 80% effectiveness. Average effectiveness is defined as an effectiveness between 50 and 80%. Poor effectiveness is defined as an effectiveness between 10 and 50% and zero effectiveness is defined as less than 10% effectiveness.

Pyrenophora teres = assay: In vivo test of activity on Pyrenophora teres (barley net blotch); settings: preventive spray 24 h before inoculation
Experimental: In Vivo Test of Activity on Pyrenophora teres (Barley Net Blotch)
as §1, §2, §3, §4
Barley plants of the Express variety are sown in a 50/50 pozzolan/peat substrate and maintained at 12° C. The treatment is carried out at the 1-leaf stage (10 cm) by spraying the aqueous suspension. The untreated control plants are sprayed with water.
24 hours after treatment, the plants are inoculated by spraying a solution of Pyrenophora teres spores (10 000 spores/ml) originating from a 10-day culture.
The barley plants are then maintained at 18° C. in a humid atmosphere. The effectiveness of the products is evaluated relative to the control plants after eight to fifteen days of incubation.
as §5

Septoria tritici = assay: In vivo test of activity on Septoria tritici (wheat septoria disease); settings: 500 g/ha, preventive spray 24 h before inoculation
Experimental: In Vivo Test of Activity on Septoria tritici (Wheat Septoria Disease
as §1, §2, §3, §4
Wheat plants of the Scipion variety are sown in a 50/50 pozzolan/peat substrate and maintained at 12° C. The treatment is carried out at the 1-leaf stage (10 cm) by spraying the aqueous suspension. The untreated control plants are sprayed with water.
24 hours after treatment, the plants are inoculated by spraying a solution of Septoria tritici spores (500 000 spores/ml) from a 7-day culture.
The wheat plantlets are then maintained at 18-20° C. in a humid atmosphere for 72 hours, and then at 90% relative humidity. The effectiveness of the products is evaluated relative to the control plants, 21 to 28 days after the contamination.
as §5

Measured: effectiveness (percentage of control relative to untreated plants)

O=C(NCCc1ncc(C(F)(F)F)cc1Cl)c1ccccc1Cl [Compound A-2]
good to average: Alternaria brassicae; 500 g/ha | Botrytis cinerea; 500 g/ha | Pyrenophora teres; 500 g/ha | Septoria tritici

O=C(NCCc1ncc(C(F)(F)F)cc1Cl)c1ccccc1F [Compound A-4]
good to average: Alternaria brassicae; 500 g/ha | Pyrenophora teres; 500 g/ha | Septoria tritici

O=C(NCCc1ncc(C(F)(F)F)cc1Cl)c1ccc(F)cc1F [Compound A-5]
good to average: Pyrenophora teres; 500 g/ha | Septoria tritici

O=C(NCCc1ncc(C(F)(F)F)cc1Cl)c1ccc(Cl)cc1Cl [Compound A-6]
good to average: Alternaria brassicae; 500 g/ha | Pyrenophora teres; 500 g/ha | Septoria tritici

COc1ccccc1C(=O)NCCc1ncc(C(F)(F)F)cc1Cl [Compound A-7]
good to average: Alternaria brassicae; 500 g/ha | Botrytis cinerea; 500 g/ha | Pyrenophora teres; 500 g/ha | Septoria tritici

COc1ccc(C(=O)NCCc2ncc(C(F)(F)F)cc2Cl)cc1 [Compound A-16]
good to average: Septoria tritici

O=C(NCCc1ncc(C(F)(F)F)cc1Cl)c1ccccc1C(F)(F)F [Compound A-20]
good to average: Alternaria brassicae; 250 g/ha | Alternaria brassicae; 330 ppm | Alternaria brassicae; 500 g/ha | Botrytis cinerea; 250 g/ha | Botrytis cinerea; 330 ppm | Botrytis cinerea; 500 g/ha | Pyrenophora teres; 250 g/ha | Pyrenophora teres; 330 ppm | Pyrenophora teres; 500 g/ha | Septoria tritici

CCc1ccc(C(=O)NCCc2ncc(C(F)(F)F)cc2Cl)cc1 [Compound A-21]
good to average: Septoria tritici

CCCc1ccc(C(=O)NCCc2ncc(C(F)(F)F)cc2Cl)cc1 [Compound A-22]
good to average: Septoria tritici

CCCCc1ccc(C(=O)NCCc2ncc(C(F)(F)F)cc2Cl)cc1 [Compound A-23]
good to average: Septoria tritici

O=C(NCCc1ncc(C(F)(F)F)cc1Cl)c1c(F)cccc1F [Compound A-25]
good to average: Alternaria brassicae; 500 g/ha | Botrytis cinerea; 500 g/ha | Pyrenophora teres; 500 g/ha | Septoria tritici

From patent US7572818B2, “2-pyridylethylbenzamide derivative” (Bayer Cropscience S.A., priority 2002, dated 2009)
